From patent publication US10183949B2, “Pyrimidinone derivative having autotaxin-inhibitory activity” (The University of Tokyo, priority 2014, dated 2019)

These molecules were tested against T1, Human autotaxin enzyme (Homo sapiens, UniProt Q13822) (assay: Evaluation of autotaxin inhibitor, 18:0 Lyso PC / choline assay (Test Example 2)). Settings: autotaxin inhibition, IC50 class; read-out: Inhibitor activity.
T1 construct: purchased R&D System
Type: biochemical
How it was run: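 Inhibition derived from concentration-dependent curves, scaled between no-compound (0%) and no-enzyme (100%) wells. Choline generated from 18:0 Lyso PC (200 μM stock) by human enzyme over 2 h at room temperature (Tris-HCl pH 7.5, NaCl, MgCl2, Triton X-100) read as resorufin fluorescence, 531/598 nm, after choline oxidase-peroxidase coupling.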

Row | Structure (SMILES) | IC50
1 | CSc1nc(-c2ccc(Cl)cc2NC(C)=O)cc(=O)n1CC(=O)NCC(C)(C)O [Compound I-0250] | 10 to 100 nM

Same assay, conditions: human autotaxin enzyme, 18:0 Lyso PC substrate, choline assay, room temperature 2 hours; read-out: Inhibitor activity (IC50)

Row | IC50 | Structure (SMILES)
2 | 10 to 100 nM | CCCCCc1nc(-c2ccc(Cl)cc2)cc(=O)n1CC(=O)N1CCC(F)(F)CC1 [Compound I-0087]
3 | 100 to 1000 nM | CCCCCc1nc(-c2ccc(Cl)cc2)cc(=O)n1CC(=O)NCCCc1ccccc1 [Compound I-0102]
4 | 10 to 100 nM | O=C(Cn1c(CCCC(F)(F)F)nc(-c2ccc(Cl)cc2)cc1=O)N(CCO)CCO [Compound I-0117]
5 | 100 to 1000 nM | O=C(NC(CO)CO)c1cccc(Cn2c(CCCC(F)(F)F)nc(-c3ccc(Cl)cc3)cc2=O)c1 [Compound I-0165]
6 | 100 to 1000 nM | CNC(=O)c1cccc(Cn2c(CCCC(F)(F)F)nc(-c3ccc(Cl)cc3)cc2=O)c1 [Compound I-0180]
7 | 10 to 100 nM | CN(C)C(=O)c1cccc(Cn2c(CCCC(F)(F)F)nc(-c3ccc(Cl)cc3)cc2=O)c1 [Compound I-0181]
8 | < 10 nM | O=C(Cn1c(CCCC(F)(F)F)nc(-c2ccc(Cl)cc2)cc1=O)NCCCS(=O)(=O)O [Compound I-0138]
9 | 10 to 100 nM | O=C(Cn1c(CCCC(F)(F)F)nc(-c2ccc(Cl)cc2)cc1=O)N1CCC(O)(CO)CC1 [Compound I-0130]
10 | < 10 nM | CCCCCc1nc(-c2ccc(Cl)cc2)cc(=O)n1CC(=O)NC1(C(=O)O)CCC1 [Compound I-0073]
11 | 10 to 100 nM | CCCCCc1nc(-c2ccc(Cl)cc2)cc(=O)n1CC(=O)NC(CC(=O)O)c1ccccc1 (stereo not drawn) [Compound I-0061]
12 | 10 to 100 nM | CCCCCc1nc(-c2ccc(Cl)cc2)cc(=O)n1CC(=O)N[C@@H](CCc1ccccc1)C(=O)O [Compound I-0101]
13 | 100 to 1000 nM | COC(=O)c1cncc(Cn2c(CCCC(F)(F)F)nc(-c3ccc(Cl)cc3)cc2=O)c1 [Compound I-0307]
14 | ≥ 1000 nM | CC(C)(C)OC(=O)Cn1cnc(-c2ccc(Cl)cc2)cc1=O [Compound I-0388]
15 | 100 to 1000 nM | CC(C)(O)CNC(=O)Cn1c(COCC2CC2)nc(-c2ccc(Cl)cc2)cc1=O [Compound I-0214]
16 | 100 to 1000 nM | CCCCCc1nc(-c2ccc(Cl)cc2)cc(=O)n1CC(=O)NCCN(C)C [Compound I-0032]
17 | 100 to 1000 nM | CCCCCc1nc(-c2ccc(Cl)cc2)cc(=O)n1CC(=O)NCC1CCC(=O)NC1 (stereo not drawn) [Compound I-0037]
18 | 100 to 1000 nM | CCCCCc1nc(-c2ccc(Cl)cc2)cc(=O)n1CC(=O)N(C)Cc1ccccc1 [Compound I-0036]
19 | ≥ 1000 nM | CCCCCn1c(-c2ccc(Cl)cc2)cc(=O)n(C)c1=N [Compound I-0001]

Row | IC50 | Structure (SMILES)
20 | 100 to 1000 nM | CCCCCc1nc(-c2ccc(Cl)cc2)cc(=O)n1CC(=O)NC1CCOCC1 [Compound I-0086]
21 | 10 to 100 nM | CCOCCc1nc(-c2ccc(Cl)cc2)cc(=O)n1CC(=O)NC1(C#N)CC1 [Compound I-0221]
22 | 100 to 1000 nM | COC(=O)c1ccc(Cn2c(CCCC(F)(F)F)nc(-c3ccc(Cl)cc3)cc2=O)s1 [Compound I-0312]
23 | ≥ 1000 nM | O=C(O)Cn1c(CCCC(F)(F)F)nc(-c2ccc(Cl)cc2)cc1=O [Compound I-0110]
24 | ≥ 1000 nM | CCCCCc1nc(-c2ccc(Cl)cc2)cc(=O)n1CC(=O)N1CCC(C(=O)O)C1 (stereo not drawn) [Compound I-0066]
25 | 100 to 1000 nM | N#CCNC(=O)c1cccc(Cn2c(CCCC(F)(F)F)nc(-c3ccc(Cl)cc3)cc2=O)c1 [Compound I-0164]
26 | 100 to 1000 nM | O=C(NC(CO)(CO)CO)c1cccc(Cn2c(CCCC(F)(F)F)nc(-c3ccc(Cl)cc3)cc2=O)c1 [Compound I-0188]
27 | < 10 nM | CCCCCc1nc(-c2ccc(Cl)cc2)cc(=O)n1CC(=O)NCCCCC(=O)O [Compound I-0064]
28 | 10 to 100 nM | CS(C)(=O)=NC(=O)Cn1c(CCCC(F)(F)F)nc(-c2ccc(C(F)(F)F)cc2)cc1=O [Compound I-0325]
29 | ≥ 1000 nM | CCCCCc1nc(-c2ccc(Cl)cc2)cc(=O)n1C [Compound I-0005]
30 | 100 to 1000 nM | CN(CC#N)C(=O)c1cccc(Cn2c(CCCC(F)(F)F)nc(-c3ccc(Cl)cc3)cc2=O)c1 [Compound I-0155]
31 | ≥ 1000 nM | CCCCCc1nc(-c2ccc(Cl)cc2)cc(=O)n1CC(=O)NC1(C(=O)O)CCOCC1 [Compound I-0058]
32 | < 10 nM | CCCCCc1nc(-c2ccc(Cl)cc2)cc(=O)n1CC(=O)NCCCC(=O)O [Compound I-0044]
33 | ≥ 1000 nM | N#CCCCn1c(-c2ccc(Cl)cc2)cc(=O)n(CC(=O)NC(Cc2ccccc2)C(=O)O)c1=O (stereo not drawn) [Compound I-0115]
34 | < 10 nM | CC(C)(C)OC(=O)Cn1c(CCCC(F)(F)F)nc(-c2ccc(Cl)cc2)cc1=O [Compound I-0206]
35 | 10 to 100 nM | O=C(NCCS(=O)(=O)O)c1cccc(Cn2c(CCCC(F)(F)F)nc(-c3ccc(Cl)cc3)cc2=O)c1 [Compound I-0154]
36 | 100 to 1000 nM | O=C(NCC(O)CO)c1cccc(Cn2c(CCCC(F)(F)F)nc(-c3ccc(Cl)cc3)cc2=O)c1 (stereo not drawn) [Compound I-0173]

Further lines, the molecule ahead of its results:

Row | Structure (SMILES) | IC50
37 | Cc1nc(-c2ccc(Cl)cc2NC(=O)C2CC2)cc(=O)n1CC(=O)N1CCN(CC(F)(F)F)CC1 [Compound I-0485] | 10 to 100 nM
38 | CCNC(=O)N1CCC(NC(=O)Cn2c(CCCC(F)(F)F)nc(-c3ccc(C(F)(F)F)cc3)cc2=O)CC1 [Compound I-0363] | 10 to 100 nM
39 | COC(=O)Nc1cc(Cl)ccc1-c1cc(=O)n(CC(=O)NC(C)(C)C(F)(F)F)c(C)n1 [Compound I-0457] | < 10 nM
40 | COC(=O)Nc1cc(Cl)ccc1-c1cc(=O)n(CC(=O)N2CCC(CC(=O)OC(C)(C)C)CC2)c(C)n1 [Compound I-0494] | < 10 nM
41 | Cc1nc(-c2ccc(Cl)cc2NC(=O)C2CC2)cc(=O)n1CC(=O)NCC1CCC(=O)N1 (stereo not drawn) [Compound I-0450] | 10 to 100 nM
42 | Cc1nc(-c2ccc(Cl)cc2NC(=O)C(C)(C)C)cc(=O)n1CC(=O)Nc1cccnc1O [Compound I-0310] | 10 to 100 nM
43 | Cc1nc(-c2ccc(C#N)cc2NC(=O)C2CC2)cc(=O)n1CC(=O)NCC1(CO)COC1 [Compound I-0287] | 10 to 100 nM
44 | COC(=O)Nc1cc(Cl)ccc1-c1cc(=O)n(CC(=O)N(C)C(C)(C)C)c(C)n1 [Compound I-0269] | 10 to 100 nM
45 | COC(=O)Nc1cc(Cl)ccc1-c1cc(=O)n(CC(=O)N2CCOCC2(C)C)c(C)n1 [Compound I-0285] | 10 to 100 nM
46 | CC(C)(C)OC(=O)Cn1c(CCC(F)(F)F)nc(-c2ccc(Cl)cc2NC(=O)C(C)(C)C)cc1=O [Compound I-0341] | 100 to 1000 nM
47 | N#CC1(NC(=O)Cn2c(CCCC(F)(F)F)nc(-c3c(F)cc(Cl)cc3F)cc2=O)CC1 [Compound I-0234] | 10 to 100 nM
48 | Cc1nc(C2=CCC(C(F)(F)F)CC2)cc(=O)n1CC(=O)NCC1(CO)COC1 (stereo not drawn) [Compound I-0268] | ≥ 1000 nM
49 | Cc1nc(-c2ccc(F)cc2NC(=O)C2CC2)cc(=O)n1Cc1cccc(C(=O)O)c1 [Compound I-0270] | 10 to 100 nM
50 | N#CC1(NC(=O)Cn2c(CCCC(F)(F)F)nc(C3=CCC(C(F)(F)F)CC3)cc2=O)CC1 (stereo not drawn) [Compound I-0232] | < 10 nM
51 | O=C(NCC1(CO)COC1)c1cccc(Cn2c(CCCC(F)(F)F)nc(-c3ccc(Cl)cc3)cc2=O)c1 [Compound I-0194] | 100 to 1000 nM
52 | CC(C)(C)NC(=O)c1cccc(Cn2cnc(-c3ccc(Cl)cc3NC(=O)C(C)(C)C)cc2=O)c1 [Compound I-0477] | 100 to 1000 nM
53 | Cc1nc(-c2ccc(F)cc2NC(=O)C(C)(C)C)cc(=O)n1Cc1cccc(C(=O)O)c1 [Compound I-0278] | 10 to 100 nM
54 | CC(C)(C)C(=O)Nc1cc(Cl)ccc1-c1cc(=O)n(Cc2cccc(C(=O)NCc3c[nH]nn3)c2)cn1 [Compound I-0488] | 100 to 1000 nM

Row | Structure (SMILES) | IC50
55 | COC(=O)Nc1cc(Cl)ccc1-c1cc(=O)n(CC(=O)NC(C)(C)CO)c(C)n1 [Compound I-0412] | < 10 nM
56 | COC(=O)Nc1cc(Cl)ccc1-c1cc(=O)n(CC(=O)OC(C)(C)C)c(C)n1 [Compound I-0266] | < 10 nM
57 | CCNC(=O)N1CCC(NC(=O)c2cccc(Cn3cnc(-c4ccc(Cl)cc4NC(=O)C(C)(C)C)cc3=O)c2)CC1 [Compound I-0500] | 10 to 100 nM
58 | O=C(Cn1c(CCCC(F)(F)F)nc(-c2ccc(C(F)(F)F)cc2)cc1=O)NCC1(O)CCCCC1 [Compound I-0344] | 10 to 100 nM
59 | O=C(Cn1c(CCCC(F)(F)F)nc(-c2ccc(C(F)(F)F)cc2)cc1=O)NCCc1cn[nH]c1 [Compound I-0333] | 10 to 100 nM
60 | Cc1nc(-c2ccc(Cl)cc2NC(=O)C2CC2)cc(=O)n1CC(=O)NCC1CNC(=O)O1 (stereo not drawn) [Compound I-0456] | 10 to 100 nM
61 | CNC(=O)CN1CCC(NC(=O)Cn2c(CCCC(F)(F)F)nc(-c3ccc(C(F)(F)F)cc3)cc2=O)CC1 [Compound I-0365] | 100 to 1000 nM
62 | N#CC1(NC(=O)Cn2c(CCCC(F)(F)F)nc(N3CCC(F)(F)CC3)cc2=O)CC1 [Compound I-0237] | 100 to 1000 nM
63 | COC(=O)Nc1cc(Cl)ccc1-c1cc(=O)n(CC(=O)N(C)C(C)(C)CO)c(C)n1 [Compound I-0277] | 10 to 100 nM
64 | Cc1nc(-c2ccc(Cl)cc2NC(=O)C2CC2)cc(=O)n1CC(=O)NCC(N)=O [Compound I-0406] | 10 to 100 nM
65 | Cc1nc(-c2ccc(C#N)cc2NC(=O)C(C)(C)C)cc(=O)n1CC(=O)NCC1(CO)COC1 [Compound I-0308] | 10 to 100 nM
66 | O=C(NCc1ccc(O)nc1)c1cccc(Cn2c(CCCC(F)(F)F)nc(-c3ccc(Cl)cc3)cc2=O)c1 [Compound I-0176] | 100 to 1000 nM
67 | N#Cc1ccc(-c2cc(=O)n(CC(=O)NC3(C#N)CC3)c(CCCC(F)(F)F)n2)cc1 [Compound I-0227] | < 10 nM
68 | COC(=O)Nc1cc(Cl)ccc1-c1cc(=O)n(CC(=O)NCc2c[nH]nn2)c(C)n1 [Compound I-0421] | < 10 nM
69 | COC(=O)Nc1cc(C#N)ccc1-c1cc(=O)n(CC(=O)NC(C)(C)C)c(C)n1 [Compound I-0372] | 10 to 100 nM
70 | CC(C)(C)C(=O)Nc1cc(Cl)ccc1-c1cc(=O)n(Cc2cccc(C(=O)Nc3cccnc3O)c2)cn1 [Compound I-0492] | 10 to 100 nM
71 | Cc1nc(-c2ccc(Cl)cc2NC(=O)C2CC2)cc(=O)n1CC(=O)N1CC(C)(O)C1 [Compound I-0420] | 100 to 1000 nM
72 | N#CC1(NC(=O)Cn2c(CCCC(F)(F)F)nc(N3CCC(C(F)(F)F)CC3)cc2=O)CC1 [Compound I-0217] | 10 to 100 nM
